Laboratory results reported in the NIST ThermoML archive (doi:10.1016/j.fluid.2016.02.009).
± gives the expanded uncertainty stated by the source.

Settings: Liquid, Vibrating tube method

## CCCCOCC [butyl ethyl ether]
283.15 K, 100 kPa
  mass density: 759.63 ± 0.3 kg/m3
283.15 K, 5000 kPa
  mass density: 764.45 ± 0.33 kg/m3
283.15 K, 10000 kPa
  mass density: 768.96 ± 0.36 kg/m3
283.15 K, 15000 kPa
  mass density: 773.2 ± 0.39 kg/m3
283.15 K, 20000 kPa
  mass density: 777.2 ± 0.42 kg/m3
283.15 K, 25000 kPa
  mass density: 781.05 ± 0.46 kg/m3
283.15 K, 30000 kPa
  mass density: 784.72 ± 0.49 kg/m3
283.15 K, 35000 kPa
  mass density: 788.24 ± 0.52 kg/m3
283.15 K, 40000 kPa
  mass density: 791.65 ± 0.56 kg/m3
283.15 K, 45000 kPa
  mass density: 794.97 ± 0.59 kg/m3
283.15 K, 50000 kPa
  mass density: 798.13 ± 0.63 kg/m3
283.15 K, 55000 kPa
  mass density: 801.25 ± 0.66 kg/m3
283.15 K, 60000 kPa
  mass density: 804.23 ± 0.69 kg/m3
283.15 K, 65000 kPa
  mass density: 807.14 ± 0.72 kg/m3
288.15 K, 100 kPa
  mass density: 754.84 ± 0.3 kg/m3
288.15 K, 5000 kPa
  mass density: 759.82 ± 0.33 kg/m3
288.15 K, 10000 kPa
  mass density: 764.48 ± 0.36 kg/m3
288.15 K, 15000 kPa
  mass density: 768.83 ± 0.39 kg/m3
288.15 K, 20000 kPa
  mass density: 772.96 ± 0.43 kg/m3
288.15 K, 25000 kPa
  mass density: 776.9 ± 0.46 kg/m3
288.15 K, 30000 kPa
  mass density: 780.66 ± 0.49 kg/m3
288.15 K, 35000 kPa
  mass density: 784.28 ± 0.53 kg/m3
288.15 K, 40000 kPa
  mass density: 787.77 ± 0.56 kg/m3
288.15 K, 45000 kPa
  mass density: 791.13 ± 0.6 kg/m3
288.15 K, 50000 kPa
  mass density: 794.37 ± 0.63 kg/m3
288.15 K, 55000 kPa
  mass density: 797.51 ± 0.67 kg/m3
288.15 K, 60000 kPa
  mass density: 800.57 ± 0.7 kg/m3
288.15 K, 65000 kPa
  mass density: 803.54 ± 0.73 kg/m3
293.15 K, 100 kPa
  mass density: 750.02 ± 0.3 kg/m3
293.15 K, 5000 kPa
  mass density: 755.18 ± 0.33 kg/m3
293.15 K, 10000 kPa
  mass density: 759.98 ± 0.36 kg/m3
293.15 K, 15000 kPa
  mass density: 764.45 ± 0.4 kg/m3
293.15 K, 20000 kPa
  mass density: 768.69 ± 0.43 kg/m3
293.15 K, 25000 kPa
  mass density: 772.75 ± 0.46 kg/m3
293.15 K, 30000 kPa
  mass density: 776.62 ± 0.5 kg/m3
293.15 K, 35000 kPa
  mass density: 780.33 ± 0.53 kg/m3
293.15 K, 40000 kPa
  mass density: 783.87 ± 0.57 kg/m3
293.15 K, 45000 kPa
  mass density: 787.34 ± 0.61 kg/m3
293.15 K, 50000 kPa
  mass density: 790.66 ± 0.64 kg/m3
293.15 K, 55000 kPa
  mass density: 793.86 ± 0.67 kg/m3
293.15 K, 60000 kPa
  mass density: 796.96 ± 0.71 kg/m3
293.15 K, 65000 kPa
  mass density: 799.99 ± 0.74 kg/m3
298.15 K, 100 kPa
  mass density: 745.17 ± 0.3 kg/m3
298.15 K, 5000 kPa
  mass density: 750.51 ± 0.33 kg/m3
298.15 K, 10000 kPa
  mass density: 755.44 ± 0.36 kg/m3
298.15 K, 15000 kPa
  mass density: 760.05 ± 0.4 kg/m3
298.15 K, 20000 kPa
  mass density: 764.43 ± 0.43 kg/m3
298.15 K, 25000 kPa
  mass density: 768.58 ± 0.47 kg/m3
298.15 K, 30000 kPa
  mass density: 772.55 ± 0.5 kg/m3
298.15 K, 35000 kPa
  mass density: 776.36 ± 0.54 kg/m3
298.15 K, 40000 kPa
  mass density: 780.01 ± 0.58 kg/m3
298.15 K, 45000 kPa
  mass density: 783.52 ± 0.61 kg/m3
298.15 K, 50000 kPa
  mass density: 786.91 ± 0.65 kg/m3
298.15 K, 55000 kPa
  mass density: 790.19 ± 0.68 kg/m3
298.15 K, 60000 kPa
  mass density: 793.36 ± 0.72 kg/m3
298.15 K, 65000 kPa
  mass density: 796.44 ± 0.75 kg/m3
303.15 K, 100 kPa
  mass density: 740.3 ± 0.3 kg/m3
303.15 K, 5000 kPa
  mass density: 745.81 ± 0.33 kg/m3
303.15 K, 10000 kPa
  mass density: 750.9 ± 0.37 kg/m3
303.15 K, 15000 kPa
  mass density: 755.66 ± 0.4 kg/m3
303.15 K, 20000 kPa
  mass density: 760.15 ± 0.44 kg/m3
303.15 K, 25000 kPa
  mass density: 764.45 ± 0.47 kg/m3
303.15 K, 30000 kPa
  mass density: 768.49 ± 0.51 kg/m3
303.15 K, 35000 kPa
  mass density: 772.35 ± 0.55 kg/m3
303.15 K, 40000 kPa
  mass density: 776.1 ± 0.58 kg/m3
303.15 K, 45000 kPa
  mass density: 779.71 ± 0.62 kg/m3
303.15 K, 50000 kPa
  mass density: 783.18 ± 0.66 kg/m3
303.15 K, 55000 kPa
  mass density: 786.51 ± 0.69 kg/m3
303.15 K, 60000 kPa
  mass density: 789.75 ± 0.72 kg/m3
303.15 K, 65000 kPa
  mass density: 792.89 ± 0.76 kg/m3
308.15 K, 100 kPa
  mass density: 735.39 ± 0.3 kg/m3
308.15 K, 5000 kPa
  mass density: 741.09 ± 0.33 kg/m3
308.15 K, 10000 kPa
  mass density: 746.35 ± 0.37 kg/m3
308.15 K, 15000 kPa
  mass density: 751.24 ± 0.4 kg/m3
308.15 K, 20000 kPa
  mass density: 755.87 ± 0.44 kg/m3
308.15 K, 25000 kPa
  mass density: 760.26 ± 0.47 kg/m3
308.15 K, 30000 kPa
  mass density: 764.45 ± 0.51 kg/m3
308.15 K, 35000 kPa
  mass density: 768.44 ± 0.55 kg/m3
308.15 K, 40000 kPa
  mass density: 772.26 ± 0.59 kg/m3
308.15 K, 45000 kPa
  mass density: 775.95 ± 0.63 kg/m3
308.15 K, 50000 kPa
  mass density: 779.48 ± 0.66 kg/m3
308.15 K, 55000 kPa
  mass density: 782.89 ± 0.7 kg/m3
308.15 K, 60000 kPa
  mass density: 786.19 ± 0.73 kg/m3
308.15 K, 65000 kPa
  mass density: 789.36 ± 0.77 kg/m3
313.15 K, 100 kPa
  mass density: 730.45 ± 0.3 kg/m3
313.15 K, 5000 kPa
  mass density: 736.34 ± 0.33 kg/m3
313.15 K, 10000 kPa
  mass density: 741.76 ± 0.37 kg/m3
313.15 K, 15000 kPa
  mass density: 746.82 ± 0.41 kg/m3
313.15 K, 20000 kPa
  mass density: 751.59 ± 0.44 kg/m3
313.15 K, 25000 kPa
  mass density: 756.09 ± 0.48 kg/m3
313.15 K, 30000 kPa
  mass density: 760.38 ± 0.52 kg/m3
313.15 K, 35000 kPa
  mass density: 764.5 ± 0.56 kg/m3
313.15 K, 40000 kPa
  mass density: 768.36 ± 0.6 kg/m3
313.15 K, 45000 kPa
  mass density: 772.14 ± 0.63 kg/m3
313.15 K, 50000 kPa
  mass density: 775.74 ± 0.67 kg/m3
313.15 K, 55000 kPa
  mass density: 779.22 ± 0.71 kg/m3
313.15 K, 60000 kPa
  mass density: 782.57 ± 0.74 kg/m3
313.15 K, 65000 kPa
  mass density: 785.85 ± 0.78 kg/m3
318.15 K, 100 kPa
  mass density: 725.44 ± 0.3 kg/m3
318.15 K, 5000 kPa
  mass density: 731.57 ± 0.33 kg/m3
318.15 K, 10000 kPa
  mass density: 737.2 ± 0.37 kg/m3
318.15 K, 15000 kPa
  mass density: 742.41 ± 0.41 kg/m3
318.15 K, 20000 kPa
  mass density: 747.31 ± 0.45 kg/m3
318.15 K, 25000 kPa
  mass density: 751.96 ± 0.48 kg/m3
318.15 K, 30000 kPa
  mass density: 756.38 ± 0.52 kg/m3
318.15 K, 35000 kPa
  mass density: 760.54 ± 0.56 kg/m3
318.15 K, 40000 kPa
  mass density: 764.55 ± 0.6 kg/m3
318.15 K, 45000 kPa
  mass density: 768.4 ± 0.64 kg/m3
318.15 K, 50000 kPa
  mass density: 772.07 ± 0.68 kg/m3
318.15 K, 55000 kPa
  mass density: 775.65 ± 0.71 kg/m3
318.15 K, 60000 kPa
  mass density: 779.08 ± 0.75 kg/m3
318.15 K, 65000 kPa
  mass density: 782.35 ± 0.78 kg/m3
323.15 K, 100 kPa
  mass density: 720.43 ± 0.3 kg/m3
323.15 K, 5000 kPa
  mass density: 726.77 ± 0.34 kg/m3
323.15 K, 10000 kPa
  mass density: 732.59 ± 0.37 kg/m3
323.15 K, 15000 kPa
  mass density: 738 ± 0.41 kg/m3
323.15 K, 20000 kPa
  mass density: 743.03 ± 0.45 kg/m3
323.15 K, 25000 kPa
  mass density: 747.78 ± 0.48 kg/m3
323.15 K, 30000 kPa
  mass density: 752.29 ± 0.53 kg/m3
323.15 K, 35000 kPa
  mass density: 756.59 ± 0.57 kg/m3
323.15 K, 40000 kPa
  mass density: 760.68 ± 0.61 kg/m3
323.15 K, 45000 kPa
  mass density: 764.61 ± 0.65 kg/m3
323.15 K, 50000 kPa
  mass density: 768.4 ± 0.69 kg/m3
323.15 K, 55000 kPa
  mass density: 771.97 ± 0.72 kg/m3
323.15 K, 60000 kPa
  mass density: 775.47 ± 0.76 kg/m3
323.15 K, 65000 kPa
  mass density: 778.87 ± 0.79 kg/m3
328.15 K, 100 kPa
  mass density: 715.37 ± 0.3 kg/m3
328.15 K, 5000 kPa
  mass density: 721.95 ± 0.34 kg/m3
328.15 K, 10000 kPa
  mass density: 727.94 ± 0.37 kg/m3
328.15 K, 15000 kPa
  mass density: 733.52 ± 0.41 kg/m3
328.15 K, 20000 kPa
  mass density: 738.72 ± 0.45 kg/m3
328.15 K, 25000 kPa
  mass density: 743.64 ± 0.49 kg/m3
328.15 K, 30000 kPa
  mass density: 748.27 ± 0.53 kg/m3
328.15 K, 35000 kPa
  mass density: 752.68 ± 0.57 kg/m3
328.15 K, 40000 kPa
  mass density: 756.87 ± 0.62 kg/m3
328.15 K, 45000 kPa
  mass density: 760.88 ± 0.65 kg/m3
328.15 K, 50000 kPa
  mass density: 764.73 ± 0.69 kg/m3
328.15 K, 55000 kPa
  mass density: 768.42 ± 0.73 kg/m3
328.15 K, 60000 kPa
  mass density: 771.99 ± 0.77 kg/m3
328.15 K, 65000 kPa
  mass density: 775.41 ± 0.8 kg/m3
333.15 K, 100 kPa
  mass density: 710.26 ± 0.3 kg/m3
333.15 K, 5000 kPa
  mass density: 717.05 ± 0.34 kg/m3
333.15 K, 10000 kPa
  mass density: 723.28 ± 0.38 kg/m3
333.15 K, 15000 kPa
  mass density: 729.03 ± 0.42 kg/m3
333.15 K, 20000 kPa
  mass density: 734.4 ± 0.45 kg/m3
333.15 K, 25000 kPa
  mass density: 739.43 ± 0.49 kg/m3
333.15 K, 30000 kPa
  mass density: 744.2 ± 0.54 kg/m3
333.15 K, 35000 kPa
  mass density: 748.71 ± 0.58 kg/m3
333.15 K, 40000 kPa
  mass density: 753.02 ± 0.62 kg/m3
333.15 K, 45000 kPa
  mass density: 757.13 ± 0.66 kg/m3
333.15 K, 50000 kPa
  mass density: 761.02 ± 0.7 kg/m3
333.15 K, 55000 kPa
  mass density: 764.8 ± 0.74 kg/m3
333.15 K, 60000 kPa
  mass density: 768.41 ± 0.78 kg/m3
333.15 K, 65000 kPa
  mass density: 771.92 ± 0.81 kg/m3
